Assay results from patent US7968595B2, “Substituted 4-aryl-chromene as activator of caspases and inducer of apoptosis and as antivascular agent and the use thereof” (Cytovia, Inc., priority 2006, dated 2011).

Legend:
MX-1 = assay: Inhibition of cell proliferation (GI50), MX-1; format: cell-based; details: Homo sapiens; MX1 cells, 72 h, CellTiter-Glo
Protocol: (§1) Human breast cancer cells MX-1 and MDAMB435, hepatocarcinoma cells SNU398, colon cancer cells HCT116 and HeLa cells were grown and harvested as in Example 7. An aliquot of […] of cells (4.4×10^4 cells/mL) was added to a well of a 96-well microtiter plate containing 5 μL of a 10% DMSO in RPMI-1640 media solution containing 10 nM to 100 μM of R(−)-2,7,8-triamino-4-(3-bromo-4,5-dimethoxy-phenyl)-3-cyano-4H-chromene (1 nM to 10 μM final). An aliquot of 45 μL of cells was added to a well of a 96-well microtiter plate containing 5 μL of a 10% DMSO in RPMI-1640 media solution without compound as the control sample for maximal cell proliferation (LMax). The samples were mixed by agitation and then incubated at 37° C. for 72 h in a 5% CO2−95% humidity incubator. After incubation, the samples were removed from the incubator and 25 μL of CellTiter-Glo™ reagent (Promega) was added. The samples were mixed by agitation and incubated at room temperature for 10-15 min. Plates were then read using a luminescent plate reader (Model SPECTRAfluor Plus, Tecan) to give Ltest values.
(§2) Baseline for GI50 (dose for 50% inhibition of cell proliferation) of initial cell numbers was determined by adding an aliquot of 45 μL of cells or 45 μL of media, respectively, to wells of a 96-well microtiter plate containing 5 μL of a 10% DMSO in RPMI-1640 media solution. […]

HCT116 = assay: Inhibition of cell proliferation (GI50), HCT116; format: cell-based; details: Homo sapiens, HCT-116; HCT116 cells, 72 h, CellTiter-Glo
Protocol: as §1, §2

[1] = system: MX1 human breast cancer tumors; assay: In vivo antitumor activity in MX-1 model, combination with cisplatin and doxorubicin; parameters: species or system mice; details: 1R 40 mg/kg, IV
Protocol: (§3) MX1 human breast cancer tumors were obtained from the NCI-FCRDC and maintained as tumors in nude mice. Tumor bits were implanted with a trocar into the right mammary area of female nu/nu mice and allowed to grow to an average size of 200-250 mg, about 12 days after being implanted. Animals were randomized and assigned to study groups of 8-10 animals/group. Body weight were determined and tumor size were measured by calipers and converted to volume by the standard formula of Vol=L×W^2/2. Compound 1R was formulated in 7% PEG400/9% Tween80/84% D5W and administered IV via the tail vein at the indicated days and doses. Day 1 of the study was the first day of treatment. Survival time was the number of days for the tumor to reach 1000 mg or death, whichever occurred earliest. Median survival is the median for the group.
Mice implanted with MX1 human breast cancer tumors were treated with compound 1R as described in EXAMPLE 11. Cisplatin was administered IP whereas doxorubicin was administered IV at the indicated doses.

HeLa cells = assay: Inhibition of cell proliferation (GI50), HeLa; format: cell-based; details: Homo sapiens, 72 h, CellTiter-Glo
Protocol: as §1, §2

ZR-75-1 = assay: Caspase activation assay in ZR-75-1 cells; format: cell-based; details: Homo sapiens, ZR751 cells, 24 h incubation, read-out: Caspase activation potency EC50 ZR751
Protocol: Human breast cancer cell lines T-47D and ZR-75-1, human colon cancer cell line DLD-1 and human non-small cell lung cancer cell line H1299 were grown according to media component mixtures designated by American Type Culture Collection+10% FCS (Invitrogen Corporation), in a 5% CO2−95% humidity incubator at 37° C. T-47D and ZR-75-1 cells were maintained at a cell density between 30 and 80% confluency at a cell density of 0.1 to 0.6×10^6 cells/mL. Cells were harvested at 600×g and resuspended at 0.65×10^6 cells/mL into appropriate media+10% FCS. An aliquot of […] of cells was added to a well of a 96-well microtiter plate containing 5 μl of a 10% DMSO in RPMI-1640 media solution containing about 0.16 to 10 μM of 2,7,8-triamino-4-(3-bromo-4,5-dimethoxy-phenyl)-3-cyano-4H-chromene (1) or other test compounds (0.016 to 1 μM final). An aliquot of 45 μl of cells was added to a well of a 96-well microtiter plate containing 5 μl of a 10% DMSO in RPMI-1640 media solution without test compound as the control sample. The samples were mixed by agitation and then incubated at 37° C. for 24 h in a 5% CO2−95% humidity incubator. […] Using a fluorescent plate reader (Model 1420 Wallac Instruments), an initial reading (T=0) was made about 1-2 min after addition of the substrate solution, employing excitation at 485 nm and emission at 530 nm, to determine the background fluorescence of the control sample. After the 3 h incubation, the samples were read for fluorescence as above (T=3 h).
The Relative Fluorescence Unit values (RFU) were used to calculate the sample readings as follows: RFU(T=3h)−Control RFU(T=0)=Net RFU(T=3h)
The activity of caspase cascade activation was determined by the ratio of the net RFU value for 2,7,8-triamino-4-(3-bromo-4,5-dimethoxy-phenyl)-3-cyano-4H-chromene or other test compound to that of control samples. The EC50 (nM) was determined by a sigmoidal dose-response calculation (Prism 2.0, GraphPad Software Inc.).

[2] = system: MX1 human breast cancer tumors; assay: In vivo antitumor activity in MX-1 model, single agent; parameters: species or system mice
Protocol: as §3

[3] = day 1, 2, 3 (QD × 3), first study (cisplatin day 2)
[4] = day 1, 8, 15 (QW × 3), second study (cisplatin day 2, 9)
[5] = day 1, 8, 15 (QW × 3), third study (doxorubicin)

COc1cc([C@H]2C(C#N)=C(N)Oc3c2ccc(N)c3N)cc(Br)c1OC [Compound 1R, R(−)-2,7,8-triamino-4-(3-bromo-4,5-dimethoxy-phenyl)-3-cyano-4H-chromene]
GI50 (MX-1): 17 nM | GI50 (HCT116): 19 nM | Median survival [1, 3]: 38.5 days | Number of tumor free mice at day 91 [1, 3]: 4 of 9 | Median survival [1, 4]: 35 days | Number of tumor free mice at day 91 [1, 4]: 1 of 7 | Median survival [1, 5]: 40 days | Number of tumor free mice at day 91 [1, 5]: 1 of 8 | GI50 (HeLa cells): 25 nM | EC50 (ZR-75-1): 19 nM | Median survival time ([2]; 20 mg/kg IV, once a day for days 1-3 (QD × 3)): 19 days | Median survival time ([2]; 20 mg/kg IV, once a day for days 1-5 (QD × 5)): 46 days | Median survival time ([2]; 20 mg/kg IV, once a week, day 1, 8, 15 (QW × 3)): 27.5 days | Median survival time ([2]; 40 mg/kg IV, once a day for days 1-3 (QD × 3)): 38 days | Median survival time ([2]; 40 mg/kg IV, once a day for days 1-5 (QD × 5)): >100 days | Median survival time ([2]; 40 mg/kg IV, once a week, day 1, 8, 15 (QW × 3)): 41 days | Median survival time ([2]; 60 mg/kg IV, once a day for days 1-3 (QD × 3)): 78 days | Median survival time ([2]; 60 mg/kg IV, once a week, day 1, 8, 15 (QW × 3)): 37.5 days
